Results from patent US7772241B2, “Variolin derivatives and their use as antitumor agents” (Pharma Mar S.A., priority 2001, dated 2010).

Legend:
SK-MEL-28 = test: Inhibition of cells growth by colorimetric (SRB) assay, SK-MEL-28; details: for GI50 / CC50: Homo sapiens, SK-MEL-28, 48 h; for GI50: read-out: GI50 MEL-28, SRB assay, 48 hours exposure; for CC50: read-out: LC50 MEL-28, SRB assay, 48 hours exposure; for TGI MEL-28: SRB assay, 48 hours exposure
How it was run: (§1)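 Read-out is sulforhodamine B protein stain (OD 490 nm) after cold TCA fixation, following 48 h continuous exposure to samples spanning 10 to 10^−8 μg/ml.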

IGROV-ET = test: Inhibition of cells growth by colorimetric (SRB) assay, IGROV-ET; details: for GI50 / CC50: Homo sapiens, 48 h; for GI50: read-out: GI50 IGROV-ET, SRB assay, 48 hours exposure; for CC50: read-out: LC50 IGROV-ET, SRB assay, 48 hours exposure; for TGI IGROV-ET: SRB assay, 48 hours exposure
How it was run: as §1

IGROV-1 = test: Inhibition of cells growth by colorimetric (SRB) assay, IGROV-1; details: for GI50 / CC50: Homo sapiens, IGROV-1, 48 h; for GI50: read-out: GI50 IGROV, SRB assay, 48 hours exposure; for CC50: read-out: LC50 IGROV, SRB assay, 48 hours exposure; for TGI IGROV: SRB assay, 48 hours exposure
How it was run: as §1

PANC-1 = test: Inhibition of cells growth by colorimetric (SRB) assay, PANC-1; details: for GI50 / CC50: Homo sapiens, PANC-1, 48 h; for GI50: read-out: GI50 PANC-1, SRB assay, 48 hours exposure; for CC50: read-out: LC50 PANC-1, SRB assay, 48 hours exposure; for TGI PANC-1: SRB assay, 48 hours exposure
How it was run: as §1

SK-OV-3 = test: Inhibition of cells growth by colorimetric (SRB) assay, SK-OV-3; details: for GI50 / CC50: Homo sapiens, SK-OV-3, 48 h; for GI50: read-out: GI50 SKOV-3, SRB assay, 48 hours exposure; for CC50: read-out: LC50 SKOV-3, SRB assay, 48 hours exposure; for TGI SKOV-3: SRB assay, 48 hours exposure
How it was run: as §1

A-549 = test: Inhibition of cells growth by colorimetric (SRB) assay, A-549; details: for GI50 / CC50: Homo sapiens, A549, 48 h; for GI50: read-out: GI50 A-549, SRB assay, 48 hours exposure; for CC50: read-out: LC50 A-549, SRB assay, 48 hours exposure; for TGI A-549: SRB assay, 48 hours exposure
How it was run: as §1

[1] = Inhibition of cells growth by colorimetric (SRB) assay, HMEC1; details: human, HMEC1 cells, LC50 H-MEC-1, SRB assay, 48 hours exposure
HMEC1 = test: as above; details: for GI50: Homo sapiens, HMEC-1, 48 h, read-out: GI50 H-MEC-1, SRB assay, 48 hours exposure; for TGI H-MEC-1: SRB assay, 48 hours exposure, in M (unit assumed)
DU-145 = test: Inhibition of cells growth by colorimetric (SRB) assay, DU-145; details: for GI50 / CC50: Homo sapiens, DU-145, 48 h; for GI50: read-out: GI50 DU-145, SRB assay, 48 hours exposure; for CC50: read-out: LC50 DU-145, SRB assay, 48 hours exposure; for TGI DU-145: SRB assay, 48 hours exposure
How it was run: as §1

K-562 = test: Inhibition of cells growth by colorimetric (SRB) assay, K-562; details: for GI50 / CC50: Homo sapiens, K562, 48 h; for GI50: read-out: GI50 K-562, SRB assay, 48 hours exposure; for CC50: read-out: LC50 K-562, SRB assay, 48 hours exposure; for TGI K-562: SRB assay, 48 hours exposure
How it was run: as §1

LNCaP = test: Inhibition of cells growth by colorimetric (SRB) assay, LNCaP; details: for GI50 / CC50: Homo sapiens, LNCaP, 48 h; for GI50: read-out: GI50 LN-caP, SRB assay, 48 hours exposure; for CC50: read-out: LC50 LN-caP, SRB assay, 48 hours exposure; for TGI LN-caP: SRB assay, 48 hours exposure
How it was run: as §1

LoVo-Dox = test: Inhibition of cells growth by colorimetric (SRB) assay, LoVo-Dox; details: for GI50 / CC50: Homo sapiens, 48 h; for GI50: read-out: GI50 LOVO-DOX, SRB assay, 48 hours exposure; for CC50: read-out: LC50 LOVO-DOX, SRB assay, 48 hours exposure; for TGI LOVO-DOX: SRB assay, 48 hours exposure
How it was run: as §1

SK-BR-3 = test: Inhibition of cells growth by colorimetric (SRB) assay, SK-BR-3; details: for GI50 / CC50: Homo sapiens, SK-BR-3, 48 h; for GI50: read-out: GI50 SK-BR-3, SRB assay, 48 hours exposure; for CC50: read-out: LC50 SK-BR-3, SRB assay, 48 hours exposure; for TGI SK-BR-3: SRB assay, 48 hours exposure
How it was run: as §1

HT-29 = test: Inhibition of cells growth by colorimetric (SRB) assay, HT-29; details: for GI50 / CC50: Homo sapiens, HT-29, 48 h; for GI50: read-out: GI50 HT-29, SRB assay, 48 hours exposure; for CC50: read-out: LC50 HT-29, SRB assay, 48 hours exposure; for TGI HT-29: SRB assay, 48 hours exposure
How it was run: as §1

LoVo = test: Inhibition of cells growth by colorimetric (SRB) assay, LoVo; details: for GI50 / CC50: Homo sapiens, LoVo, 48 h; for GI50: read-out: GI50 LOVO, SRB assay, 48 hours exposure; for CC50: read-out: LC50 LOVO, SRB assay, 48 hours exposure; for TGI LOVO: SRB assay, 48 hours exposure
How it was run: as §1

With `Cl.Nc1nccc(-c2c3cccnc3n3c(N)nccc23)n1` [Compound 51] the GI50 (SK-MEL-28) was 0.0925 µM, the CC50 (SK-MEL-28) was 1.37 µM and the “TGI MEL-28” value (SK-MEL-28) was 2.69E−07. For the same compound, the GI50 (IGROV-ET) was 0.0748 µM, the CC50 (IGROV-ET) was 18.6 µM and the “TGI IGROV-ET” value (IGROV-ET) was 2.25E−07. The GI50 (IGROV-1) was 0.0851 µM, the CC50 (IGROV-1) was 2.12 µM and the “TGI IGROV” value (IGROV-1) was 3.28E−07. For the same compound, the GI50 (PANC-1) was 0.161 µM, the CC50 (PANC-1) was 28.6 µM and the “TGI PANC-1” value (PANC-1) was 2.73E−06. For the same compound, the GI50 (SK-OV-3) was 0.146 µM, the CC50 (SK-OV-3) was 28.6 µM and the “TGI SKOV-3” value (SK-OV-3) was 2.15E−06. For the same compound, the GI50 (A-549) was 0.0999 µM, the CC50 (A-549) was 4.57 µM and the “TGI A-549” value (A-549) was 3.68E−07. For the same compound, the CC50 at 48 h [1] was 0.143 µM, the GI50 (HMEC1) was 0.0164 µM and the “TGI H-MEC-1” value (HMEC1) was 1.54E−08. For the same compound, the GI50 (DU-145) was 0.0654 µM, the CC50 (DU-145) was 2.7 µM and the “TGI DU-145” value (DU-145) was 1.48E−07. The GI50 (K-562) was 0.311 µM, the CC50 (K-562) was 5.17 µM and the “TGI K-562” value (K-562) was 4.03E−07. The GI50 (LNCaP) was 0.0737 µM, the CC50 (LNCaP) was 0.286 µM and the “TGI LN-caP” value (LNCaP) was 1.27E−07. The GI50 (LoVo-Dox) was 0.078 µM, the CC50 (LoVo-Dox) was 17.9 µM and the “TGI LOVO-DOX” value (LoVo-Dox) was 2.86E−07. The GI50 (SK-BR-3) was 0.0591 µM, the CC50 (SK-BR-3) was 0.554 µM and the “TGI SK-BR-3” value (SK-BR-3) was 1.42E−07. For the same compound, the GI50 (HT-29) was 0.101 µM, the CC50 (HT-29) was 28.6 µM and the “TGI HT-29” value (HT-29) was 2.86E−07. The GI50 (LoVo) was 0.0774 µM, the CC50 (LoVo) was 16 µM and the “TGI LOVO” value (LoVo) was 1.84E−07.
In the case of `Nc1nccc(-c2c3cccnc3n3ccccc23)n1` [Compound 56], the GI50 (SK-MEL-28) is reported as 7.73 µM, the CC50 (SK-MEL-28) is reported as 38.3 µM and the “TGI MEL-28” value (SK-MEL-28) is reported as 1.73E−05. For the same compound, the GI50 (IGROV-ET) was 11.5 µM, the CC50 (IGROV-ET) was 38.3 µM and the “TGI IGROV-ET” value (IGROV-ET) was 2.35E−05. For the same compound, the GI50 (IGROV-1) was 8.69 µM, the CC50 (IGROV-1) was 38.3 µM and the “TGI IGROV” value (IGROV-1) was 1.91E−05. For the same compound, the GI50 (PANC-1) was 8.96 µM, the CC50 (PANC-1) was 38.3 µM and the “TGI PANC-1” value (PANC-1) was 1.94E−05. The GI50 (SK-OV-3) was 7.12 µM, the CC50 (SK-OV-3) was 35.5 µM and the “TGI SKOV-3” value (SK-OV-3) was 1.59E−05. The GI50 (A-549) was 6.28 µM, the CC50 (A-549) was 34.9 µM and the “TGI A-549” value (A-549) was 1.48E−05. For the same compound, the CC50 at 48 h [1] was 22.3 µM, the GI50 (HMEC1) was 3.9 µM and the “TGI H-MEC-1” value (HMEC1) was 9.34E−06. The GI50 (DU-145) was 2.12 µM, the CC50 (DU-145) was 25.6 µM and the “TGI DU-145” value (DU-145) was 8.88E−06. For the same compound, the GI50 (K-562) was 8.23 µM, the CC50 (K-562) was 38.3 µM and the “TGI K-562” value (K-562) was 1.83E−05. The GI50 (LNCaP) was 5.93 µM, the CC50 (LNCaP) was 20.6 µM and the “TGI LN-caP” value (LNCaP) was 1.11E−05. For the same compound, the GI50 (LoVo-Dox) was 5.93 µM, the CC50 (LoVo-Dox) was 38.3 µM and the “TGI LOVO-DOX” value (LoVo-Dox) was 1.66E−05. For the same compound, the GI50 (SK-BR-3) was 5.32 µM, the CC50 (SK-BR-3) was 38.3 µM and the “TGI SK-BR-3” value (SK-BR-3) was 1.88E−05. For the same compound, the GI50 (HT-29) was 12.5 µM, the CC50 (HT-29) was 38.3 µM and the “TGI HT-29” value (HT-29) was 3.46E−05. The GI50 (LoVo) was 6.74 µM, the CC50 (LoVo) was 38.3 µM and the “TGI LOVO” value (LoVo) was 1.63E−05.
With `CSc1nccc2c(-c3cccs3)c3cccnc3n12` [Compound 60] the GI50 (SK-MEL-28) was at least 33.6 µM, the CC50 (SK-MEL-28) was at least 33.6 µM and the “TGI MEL-28” value (SK-MEL-28) was 3.36E−05. For the same compound, the GI50 (IGROV-ET) was at least 33.6 µM, the CC50 (IGROV-ET) was at least 33.6 µM and the “TGI IGROV-ET” value (IGROV-ET) was 3.36E−05. For the same compound, the GI50 (IGROV-1) was 10.8 µM, the CC50 (IGROV-1) was at least 33.6 µM and the “TGI IGROV” value (IGROV-1) was 3.36E−05. The GI50 (PANC-1) was at least 33.6 µM, the CC50 (PANC-1) was at least 33.6 µM and the “TGI PANC-1” value (PANC-1) was 3.36E−05. For the same compound, the GI50 (SK-OV-3) was at least 33.6 µM, the CC50 (SK-OV-3) was at least 33.6 µM and the “TGI SKOV-3” value (SK-OV-3) was 3.36E−05. For the same compound, the GI50 (A-549) was 22.6 µM, the CC50 (A-549) was at least 33.6 µM and the “TGI A-549” value (A-549) was 3.36E−05. For the same compound, the CC50 at 48 h [1] was at least 33.6 µM, the GI50 (HMEC1) was 22.6 µM and the “TGI H-MEC-1” value (HMEC1) was 3.36E−05. For the same compound, the GI50 (DU-145) was at least 33.6 µM, the CC50 (DU-145) was at least 33.6 µM and the “TGI DU-145” value (DU-145) was 3.36E−05. The GI50 (K-562) was at least 33.6 µM, the CC50 (K-562) was at least 33.6 µM and the “TGI K-562” value (K-562) was 3.36E−05. The GI50 (LNCaP) was at least 33.6 µM, the CC50 (LNCaP) was at least 33.6 µM and the “TGI LN-caP” value (LNCaP) was 3.36E−05. The GI50 (LoVo-Dox) was at least 33.6 µM, the CC50 (LoVo-Dox) was at least 33.6 µM and the “TGI LOVO-DOX” value (LoVo-Dox) was 3.36E−05. For the same compound, the GI50 (SK-BR-3) was 0.24 µM, the CC50 (SK-BR-3) was 3.36 µM and the “TGI SK-BR-3” value (SK-BR-3) was 9.95E−07. The GI50 (HT-29) was at least 33.6 µM, the CC50 (HT-29) was at least 33.6 µM and the “TGI HT-29” value (HT-29) was 3.36E−05. The GI50 (LoVo) was at least 33.6 µM, the CC50 (LoVo) was at least 33.6 µM and the “TGI LOVO” value (LoVo) was 3.36E−05.
